Results reported in patent US20210369816A1, “FORMULATIONS OF ABALOPARATIDE, TRANSDERMAL PATCHES THEREOF, AND USES THEREOF” (priority 2016, published 2021).

Legend:
[1] = system: ovariectomy-induced osteopenic rats and monkeys; details: ovariectomy-induced osteopenic rats and monkeys (Doyle 2013a; Doyle 2013b; Hattersley 2013); cited from earlier work
rat femur fracture model = assay: Rat femur fracture model (fracture healing); assay type: in vivo
Source text: Certain embodiments of the methods disclosed herein also include the use of the microprojection arrays as described herein in their various embodiments to accelerate fracture healing in a patient who has suffered one or more fractures and for which the fractures are not completely healed. Healing of bone fractures (eg long bone fractures) involves endochondral and intramembranous bone formation, which together form a callus that achieves union, stabilization, and gradual recovery of bone strength. […] Sixteen rats from each group were necropsied after 4 and 6 weeks of healing, with 12 fractured femurs per group used for micro-CT and biomechanical testing and the other 4 femurs used for micro-CT and histology.

treated subjects = details: subcutaneous administration; cited from earlier work
[2] = 25 ug/kg/d sc daily, week 4, P<0.05 vs VEH

Q: Which bone loss [1] does the source give for “[Glu^22,25, Leu^23,28,31, Aib^29, Lys^26,30]hPTHrP(1-34)NH2 [abaloparatide]” here?
A: complete reversal of bone loss

Q: And the “callus stiffness, higher vs VEH (three-point bending)” value (shortened to “callus stiffness, higher vs VEH”) (rat femur fracture model; 5 ug/kg/d sc daily, week 4, P<0.05 vs VEH)?
A: 60%

Q: And the “callus stiffness, higher vs VEH” value (rat femur fracture model; 5 ug/kg/d sc daily, week 6, P<0.05 vs VEH)?
A: 112%

Q: What about the “callus peak load, higher vs VEH” value (rat femur fracture model; [2]) of the same substance?
A: 77%

Q: What about the “callus stiffness, higher vs VEH” value (rat femur fracture model; [2]) of the same substance?
A: 96%

Q: What about the “callus area (histomorphometry) vs VEH” value (rat femur fracture model; 5 and 25 ug/kg/d, week 4) of the same substance?
A: significantly greater callus area

Q: And the “micro-CT of fracture calluses vs VEH” value (rat femur fracture model; 5 and 25 ug/kg/d, weeks 4 and 6)?
A: significantly greater callus bone volume, bone volume fraction, and BMC

Q: What about the “histologic scoring of cortical bridging across the fracture gap vs VEH” value (rat femur fracture model; 5 or 25 ug/kg/d, week 4) of the same substance?
A: significantly greater bridging

Q: What about the “callus peak load vs VEH” value (rat femur fracture model; both abaloparatide groups (5 and 25 ug/kg/d), week 6) of the same substance?
A: numerically higher

Q: And the “bone mineral density (BMD) and/or trabecular bone score (TBS) at the lumbar spine, total hip, and femoral neck” value (treated subjects)?
A: improve
